{"source": "patent US12678472B2", "about": "“Method for selective recovery of hydrophobic compounds” (priority 2019, dated 2026)", "key": {"[1]": {"experiment": "Capture of target molecule from solution by insoluble cross-linked cyclodextrin polymer (batch slurry, supernatant measured after filtration)", "settings": "Example 9: 2 mg/mL CBD in 1:1 ethanol:water, 10:1 polymer:CBD", "protocol": "A standard protocol was followed in all Examples with the variances from the standard protocol as described in each Example. The standard protocol included a plurality of steps. A mass of CBD was dissolved in ethanol to form a stock solution. A reference sample of the stock solution was diluted with ethanol to obtain a target CBD or other target molecule concentration for a reference measurement. A reaction sample was taken from the remaining stock solution. A cross-linked polysaccharide was combined with the reaction sample in a ratio relative to the CBD or other target molecule concentration present in the reaction sample (by mass) as specified in Examples. The cross-linked polymer is HDI-linked cyclodextrin prepared with a ratio of 8:1 HDI to cyclodextrin.\nWater is combined with the reaction sample until the reaction sample reaches a target CBD or other target molecule concentration, and a target ethanol to water ratio. The reaction mixture including the water is filtered at a cutoff size of between 75 μm to 4,000 μm aperture size, or exposed to a magnetic field with a neodymium magnet through the wall of a flask, to retrieve the cross-linked polymer bound with CBD or other target molecule concentration. Once retrieved, the cross-linked polymer is flushed with a dissociation solvent for dissolving the target molecule. […]"}, "[2]": {"experiment": "Solubility of CBD in ethanol:water mixtures"}}}
{"smiles": "C=C(C)[C@@H]1CCC(C)=C[C@H]1c1c(O)cc(CCCCC)cc1O", "note": "[CBD, cannabidiol]", "values": [{"measurement": "time to capture plateau", "setting": "[1]", "value": "about 5 minutes"}, {"measurement": "solubility of CBD", "setting": "[2]; 40:60 EtOH:H2O, 2 mg/mL CBD", "value": "not fully dissolved"}, {"measurement": "solubility of CBD", "setting": "[2]; 45:56 EtOH:H2O, 2 mg/mL CBD", "value": "cloudy"}, {"measurement": "solubility of CBD", "setting": "[2]; 50:50 EtOH:H2O, EtOH added first then H2O", "value": "dissolves"}, {"measurement": "solubility of CBD", "setting": "[2]; Example 13: 6 mg/mL in 1:1 EtOH:H2O with sonication and heating", "value": "did not dissolve"}, {"measurement": "percent of the CBD not in solution", "setting": "[2]; Example 17: CBD in 3:7 EtOH:H2O", "value": "Ten"}]}
